Assay results: patent US20240016807A1, “COMBINATION THERAPY FOR THE TREATMENT OF A LIVER DISEASE” (INVENTIVA, priority 2020, published 2024)

Tests used:
Format in all cases: in vivo, C57BL6/J mice
[1] = test system: epididymal white adipose tissue (EWAT); experiment: Epididymal white adipose tissue weight in HFCC/CDX diet mouse model; details: 2 weeks treatment QD per os; lanifibranor 10 mg/kg, firsocostat 30 then 15 mg/kg
Experimental: It has been reported (Duparc T et al., Am J Physiol Gasterointest Liver Physiol, 2019, Vol. 317, n° 4, pages G508-G517) that mice fed with a high fat/high cholesterol/high cholic acid diet with 2% 2-hydroxypropyl beta-cyclodextrin in drinking water for 3 weeks rapidly develops liver complications such as steatosis, inflammation and fibrosis with concomitant increase in plasma ALT/AST levels. The benefit of a combination therapy comprising lanifibranor and firsocostat was assessed in this model. C57BL6/J mice were fed for 3 weeks with a 60% high fat/1.25% cholesterol/0.5% cholic acid diet with 2% 2-hydroxypropyl beta-cyclodextrin in drinking water (HFCC/CDX diet). After 1 week of diet, blood was collected (˜150 μL/ethylenediaminetetraacetic acid (EDTA)) in non-fasting conditions and plasma ALT and AST levels were measured. Mice were then randomized into 4 homogenous treatment groups (n=10 mice per group) according to their 1) ALT levels, 2) AST levels and 3) body weight. The four groups received then their treatment for the remaining 2 weeks on top of the HFCC/CDX diet as follows: • Group 1: vehicle 1+vehicle 2; • Group 2: lanifibranor+vehicle 2; • Group 3: vehicle 1+firsocostat; • Group 4: lanifibranor+firsocostat. All treatments were given QD per os. […]

[2] = test system: HFCC+CDX diet model (liver lipids); experiment: Liver lipids assay in HFCC/CDX diet mouse model; details: 2 weeks treatment QD per os; lanifibranor 10 mg/kg, firsocostat 30 then 15 mg/kg
Experimental: (§1) It has been reported (Duparc T et al., Am J Physiol Gasterointest Liver Physiol, 2019, Vol. 317, n° 4, pages G508-G517) that mice fed with a high fat/high cholesterol/high cholic acid diet with 2% 2-hydroxypropyl beta-cyclodextrin in drinking water for 3 weeks rapidly develops liver complications such as steatosis, inflammation and fibrosis with concomitant increase in plasma ALT/AST levels. The benefit of a combination therapy comprising lanifibranor and firsocostat was assessed in this model. C57BL6/J mice were fed for 3 weeks with a 60% high fat/1.25% cholesterol/0.5% cholic acid diet with 2% 2-hydroxypropyl beta-cyclodextrin in drinking water (HFCC/CDX diet). After 1 week of diet, blood was collected (˜150 μL/ethylenediaminetetraacetic acid (EDTA)) in non-fasting conditions and plasma ALT and AST levels were measured. Mice were then randomized into 4 homogenous treatment groups (n=10 mice per group) according to their 1) ALT levels, 2) AST levels and 3) body weight. The four groups received then their treatment for the remaining 2 weeks on top of the HFCC/CDX diet as follows: • Group 1: vehicle 1+vehicle 2; • Group 2: lanifibranor+vehicle 2; • Group 3: vehicle 1+firsocostat; • Group 4: lanifibranor+firsocostat. All treatments were given QD per os. Vehicle 1 stands for lanifibranor's vehicle (i.e. methyl cellulose/poloxamer), vehicle 2 stands for firsocostat's vehicle (i.e. Tween®80/methylcellulose). Lanifibranor was given at 10 mg/kg for 2 weeks and firsocostat was given at 30 mg/kg for the first 6 days and then at 15 mg/kg for the last 8 days: due to the high loss of weight observed in the combination group, the dose of firsocostat was adapted to limit toxicity. At the end of the treatment period all the mice were weighted and 4-hour fasted prior to blood collection (maximal volume/EDTA). Plasma was isolated and stored at −80° C. Plasma leftover was used for evaluation of plasmatic triglycerides, cholesterols and free fatty acid. After blood collection, mice were sacrificed by cervical dislocation under isoflurane anaesthesia and exsanguinated with sterile saline. The liver was collected and weighted then liver samples were dissected for histology analysis (H&E, Sirius Red staining, % Sirius Red labelling and NAFLD Activity Score (NAS)), liver lipids assay, hepatic gene expression of IL-1b, MCP-1 for inflammation, Col1 alpha1 and TGF-beta for fibrosis were analysed by qPCR.

[3] = Body weight follow-up in HFCC/CDX diet mouse model; details: for body weight: during treatment, lanifibranor 10 mg/kg QD per os, firsocostat 30 mg/kg QD per os in first week
Experimental: It has been reported (Duparc T et al., Am J Physiol Gasterointest Liver Physiol, 2019, Vol. 317, n° 4, pages G508-G517) that mice fed with a high fat/high cholesterol/high cholic acid diet with 2% 2-hydroxypropyl beta-cyclodextrin in drinking water for 3 weeks rapidly develops liver complications such as steatosis, inflammation and fibrosis with concomitant increase in plasma ALT/AST levels. The benefit of a combination therapy comprising lanifibranor and firsocostat was assessed in this model.
C57BL6/J mice were fed for 3 weeks with a 60% high fat/1.25% cholesterol/0.5% cholic acid diet with 2% 2-hydroxypropyl beta-cyclodextrin in drinking water (HFCC/CDX diet). After 1 week of diet, blood was collected (˜150 μL/ethylenediaminetetraacetic acid (EDTA)) in non-fasting conditions and plasma ALT and AST levels were measured. Mice were then randomized into 4 homogenous treatment groups (n=10 mice per group) according to their 1) ALT levels, 2) AST levels and 3) body weight. The four groups received then their treatment for the remaining 2 weeks on top of the HFCC/CDX diet as follows: • Group 1: vehicle 1+vehicle 2; • Group 2: lanifibranor+vehicle 2; • Group 3: vehicle 1+firsocostat; • Group 4: lanifibranor+firsocostat.
All treatments were given QD per os. Vehicle 1 stands for lanifibranor's vehicle (i.e. methyl cellulose/poloxamer), vehicle 2 stands for firsocostat's vehicle (i.e.
Tween®80/methylcellulose). Lanifibranor was given at 10 mg/kg for 2 weeks and firsocostat was given at 30 mg/kg for the first 6 days and then at 15 mg/kg for the last 8 days: due to the high loss of weight observed in the combination group, the dose of firsocostat was adapted to limit toxicity. At the end of the treatment period all the mice were weighted and 4-hour fasted prior to blood collection (maximal volume/EDTA). Plasma was isolated and stored at −80° C. Plasma leftover was used for evaluation of plasmatic triglycerides, cholesterols and free fatty acid. After blood collection, mice were sacrificed by cervical dislocation under isoflurane anaesthesia and exsanguinated with sterile saline.

[4] = test system: HFCC+CDX diet model (liver histology); experiment: Liver histology (steatosis, inflammation, fibrosis scoring, % Sirius Red) in HFCC/CDX diet mouse model; details: for histological fibrosis score: compared to the vehicle group (score of 1); for histological steatosis score / histological inflammation score: 3 being the maximum; for histological steatosis score: all vehicle animals scored 3; for histological inflammation score: all vehicle mice scored 3; for surface of fibrosis (collagen deposition within the liver): vehicle 0.14%; for total scoring including steatosis, inflammation and fibrosis scoring: vehicle 6.9
Experimental: as §1

[5] = test system: hepatic gene expression of IL-1b, MCP-1, Col1 alpha1 and TGF-beta; experiment: Hepatic gene expression by qPCR (inflammation and fibrosis genes) in HFCC/CDX diet mouse model; details: liver, vs vehicle, 2 weeks treatment
Experimental: as §1

## COc1ccccc1[C@H](Cn1c(=O)n(C(C)(C)C(=O)O)c(=O)c2c(C)c(-c3ncco3)sc21)OC1CCOCC1 [firsocostat]
[1]
  epididymal white adipose tissue (EWAT) weight: neither lanifibranor alone, firsocostat alone nor the combination of lanifibranor and firsocostat had an effect
[2]
  hepatic fatty acids levels, change vs vehicle: −16%
  hepatic total cholesterol, change vs vehicle: −9%
  hepatic triglycerides, change vs vehicle: −14%
[3]; after firsocostat dose reduced from 30 mg/kg to 15 mg/kg
  body weight after firsocostat dose reduction: normalized their body weight
[3]
  body weight: induced a body weight loss in the first week of treatment
[4]
  histological fibrosis score: no effect
  histological steatosis score: score of 2 in 7 animals but had no effect in 2 animals
  histological inflammation score: 1 animals had a score of 3, 7 animals had a score of 2 and 1 animal had a score of 1
  surface of fibrosis (collagen deposition within the liver): 0.10%
  total scoring including steatosis, inflammation and fibrosis scoring: 5.1
[5]
  hepatic IL-1beta expression: decreased both IL-1beta and MCP-1 expressions but only the decrease in MCP-1 expression reached significance
  hepatic MCP-1 expression: decreased both IL-1beta and MCP-1 expressions but only the decrease in MCP-1 expression reached significance
  hepatic TGF-beta1 expression: statistically decreased
  hepatic collagen 1 alpha 1 expression: statistically decreased

## O=C(O)CCCc1cc2cc(Cl)ccc2n1S(=O)(=O)c1ccc2ncsc2c1 [lanifibranor, 5-Chloro-1-[(6-benzothiazolyl)sulfonyl]-1H-indole-2-butanoic acid]
[1]
  epididymal white adipose tissue (EWAT) weight: neither lanifibranor alone, firsocostat alone nor the combination of lanifibranor and firsocostat had an effect
[2]
  hepatic fatty acids levels, change vs vehicle: no effect
  hepatic total cholesterol, change vs vehicle: −18%
  hepatic triglycerides, change vs vehicle: −7%
[3]
  body weight: minor body weight loss that was not significant
[4]
  histological fibrosis score: no effect
  histological steatosis score: score of 2 for 8 animals and of 1 for 2 animals
  histological inflammation score: 2 animals had a score of 3, 6 animals had a score of 2 and 2 animals had a score of 1
  surface of fibrosis (collagen deposition within the liver): 0.08%
  total scoring including steatosis, inflammation and fibrosis scoring: 4.7
[5]
  hepatic IL-1beta expression: statistically decreased
  hepatic MCP-1 expression: statistically decreased
  hepatic TGF-beta1 expression: statistically decreased
  hepatic collagen 1 alpha 1 expression: statistically decreased
